# Measurements from patent US9125406B2, “Methods and compositions for control of cabbage looper, trichoplusia ni” (Simon Fraser University, priority 2008, dated 2015).
# Read-outs that look alike come from different tables or passages of the source. Marks after values point to notes of the source that are not given here.
# Key:
# [1] = tested on: third instar T. ni larvae; assay: Leaf disk choice feeding deterrence bioassay; assay type: in vivo, Trichoplusia ni; conditions: for pest or weed control at 50 µg/cm2, 50 µg/cm2 / pest or weed control at 50 µg/cm2: Trichoplusia, foliar; for pest or weed control at 50 µg/cm2: feeding deterrence (FD), Table 12, non-toxic feeding deterrents, read-out: % deterrence; for DC50: feeding deterrence DC50, unit not given in Table 12; for Feeding deterrency: Table 6 summary class
# From the text: Cabbage plants (Brassica oleraceae var. Stonehead) used in the bioassays were routinely grown in plastic pots with a mixture of sandy loam soil and peat moss (4:1) in a greenhouse at the University of British Columbia, Vancouver, BC, Canada. Leaves were collected from cabbage plants that were 5-6 weeks old.
# T. ni larvae and moths were obtained from a long established colony (>50 generations) maintained on an artificial diet, Velvetbean Caterpillar Diet No. F9796 [Bio-Sery Inc. (Frenchtown, NIL)] in the insectary of the University of British Columbia (UBC).
# (§1) Initial screening for feeding deterrent effects was conducted at 50 μg/cm^2 in feeding deterrent bioassays.
# Larvae were given the choice of feeding on two leaf disks, one treated with 10 μL of a solution of the test substance painted on each side and the other treated with a carrier solvent alone. The number of larvae was 25 per treatment.
# Feeding deterrence data (percent) for initial screening concentration were analyzed by analysis of variance (ANOVA) after arcsin transformation using statistics software (Statistix 7. Analytical Software, Statistix 7 for Windows 95, 98, NT, 2000. Analytical Software, Tallahassee).
# [2] = tested on: third instar T. ni larvae; assay: whole plant or invertebrate; conditions: for mortality at 0.25 %: Trichoplusia, topical, 24 h
# Description: as §1
# Mortality was determined 24 h after spraying larvae directly with test solutions. Third instar T. ni larvae were sprayed in 90 mm×15 mm Petri dishes (Falcon) lined with Fisher Scientific filter paper (90 mm diameter). Small plastic hand spraying bottles (50 mL capacity) were used. Larvae were then transferred to Petri dishes (90 mm×15 mm) with a small piece of artificial diet. Each Petri dish contained 10 larvae. Three replicates, each consisting of 10 larvae, were used per treatment.
# [3] = tested on: T. ni moths; assay: Oviposition choice (deterrence) bioassay on cabbage leaves; assay type: in vivo, Trichoplusia ni; conditions: for pest or weed control at 0.25 %: Trichoplusia, read-out: OD (%), mean ± SE (n = 25-33); for % deterrence / Index = deterrence/mortality: Table 11; for % deterrence: BL mark not explained; for Index = deterrence/mortality: oviposition deterrence divided by mortality; for Oviposition deterrency: Table 6 summary class, 0.25%
# Description: as §1
# T. ni larvae were reared on normal diet from neonates (<24 h old) until pupation. Pupae were sexed and put in separate plastic containers until emergence. After eclosion, pairs of moths (one male and one female) were introduced into each cage with a control and a treated cabbage leaf. Pairs of moths (n=25) were used per treatment. Each leaf (approximately 100-110 cm^2) was sprayed with 0.5 mL of MeOH or a methanolic solution of the test chemical on each side. Eggs were counted on each cabbage leaf after 48 h.
# [4] = Table 5, 1,2-dialkoxybenzenes, feeding deterrence at 50 μg/cm^2, read-out: FD (%), mean ± SE (n = 25)
# [5] = Table 4, 1,3-dialkoxybenzenes, feeding deterrence at 50 μg/cm^2, read-out: FD (%), mean (SE (n = 25))
# [6] = Table 3, 1,4-dialkoxybenzenes, feeding deterrence at 50 μg/cm^2
# [7] = Table 3, 1,4-dialkoxybenzenes, feeding deterrence at 50 μg/cm^2, read-out: FD (%), mean ± SE (n = 25)
# [8] = read-out: Mortality (%) N = 3 × 10, Table 8, at 0.25%
# [9] = contact toxicity to larvae, negative or zero values replaced by 0.1 for the index (footnote b)
# [10] = Table 8, 50 μg/cm^2, read-out: F.D (%) Mean ± SE N = 25
# [11] = read-out: mortality (%) (n = 3 × 10), Table 5, at 0.25%
# [12] = 48 h, Table 5, oviposition deterrence at 0.25%, 48 h
# [13] = read-out: mortality (%) (n = 3 × 10), Table 4, at 0.25%
# [14] = 48 h, Table 4, oviposition deterrence at 0.25%, 48 h
# [15] = read-out: mortality (%) (n = 3 × 10), Table 3, at 0.25%
# [16] = oviposition deterrence at 0.25%
# [17] = 48 h, Table 3, oviposition deterrence at 0.25%, 48 h
compound,measurement,setting,value
COc1ccccc1O [1-hydroxy-2-methoxybenzene],"pest or weed control at 50 µg/cm2, 50 µg/cm2",[1]; [4],-7.5%
"CCOc1ccccc1O [2a{2}, 2-Ethoxy phenol]","pest or weed control at 50 µg/cm2, 50 µg/cm2",[1]; [4],-5.3%
"CCCOc1ccccc1O [2a{3}, 2-Propoxy phenol]","pest or weed control at 50 µg/cm2, 50 µg/cm2",[1]; [4],-12 ± 20%
"CCCCOc1ccccc1O [2a{4}, 2-Butoxy phenol]","pest or weed control at 50 µg/cm2, 50 µg/cm2",[1]; [4],12 ± 20.3%
"C=CCOc1ccccc1O [2a{6}, 2-Allyloxy phenol]","pest or weed control at 50 µg/cm2, 50 µg/cm2",[1]; [4],31.1 ± 15.5%
"COc1cccc(O)c1 [2b{1}, 3-Methoxy phenol]","pest or weed control at 50 µg/cm2, 50 µg/cm2",[1]; [5],44.7 ± 17.5%
"CCOc1cccc(O)c1 [2b{2}, 3-Ethoxy phenol]","pest or weed control at 50 µg/cm2, 50 µg/cm2",[1]; [5],-18.7 ± 17.8%
"CCCOc1cccc(O)c1 [2b{3}, 3-Propoxy phenol]","pest or weed control at 50 µg/cm2, 50 µg/cm2",[1]; [5],4 ± 20.4%
"CC(C)CCOc1cccc(O)c1 [2b{4}, 3-(3-Methyl-butyloxy)phenol]","pest or weed control at 50 µg/cm2, 50 µg/cm2",[1]; [5],-5.8 ± 18.7%
"COc1ccc(O)cc1 [2c{1}, 4-Methoxy phenol]","FD (%), mean ± SE (n = 25)",[1]; [6],feeding stimulants
same,"pest or weed control at 50 µg/cm2, 50 µg/cm2",[1]; [7],-26.5 ± 18.6%
"CCOc1ccc(O)cc1 [2c{2}, 4-Ethoxy phenol]","FD (%), mean ± SE (n = 25)",[1]; [6],weak feeding deterrent
same,"pest or weed control at 50 µg/cm2, 50 µg/cm2",[1]; [7],29.8 ± 18.2%
"CCCOc1ccc(O)cc1 [2c{3}, 4-Propoxy phenol]","FD (%), mean ± SE (n = 25)",[1]; [6],feeding stimulants
same,"pest or weed control at 50 µg/cm2, 50 µg/cm2",[1]; [7],-28 ± 18.4%
"CC(C)CCOc1ccc(O)cc1 [2c{5}, 4-(3-Methyl-butyloxy)phenol]","pest or weed control at 50 µg/cm2, 50 µg/cm2",[1]; [7],29.5 ± 16.6%
"COc1ccccc1OC [3a{1,1}, 1,2-Dimethoxy benzene]","pest or weed control at 50 µg/cm2, 50 µg/cm2","[1]; read-out: FD (%), mean ± SE (n = 25)",26 ± 17.6%
"CCOc1ccccc1OCC [3a{2,2}, 1,2-Diethoxy benzene]","pest or weed control at 50 µg/cm2, 50 µg/cm2",[1]; [4],-2.1%
"CCCOc1ccccc1OCCC [3a{3,3}, 1,2-Dipropoxy benzene]","pest or weed control at 50 µg/cm2, 50 µg/cm2",[1]; [4],26.2 ± 17.6%
"C=CCOc1ccccc1OCCC [3a{3, 6}, 1-allyloxy-2-propoxybenzene]",mortality at 0.25 %,[2]; [8],17%
same,% mortality,[2]; [9],10-17 ^a %
same,"pest or weed control at 50 µg/cm2, 50 µg/cm2",[1]; [10],96 ± 3%
same,pest or weed control at 50 µg/cm2,[1],96%
same,DC50,[1],12-16 ^a μg/cm^2
"CCCCOc1ccccc1OCCCC [3a{4,4}, 1,2-Dibutoxy benzene]",mortality at 0.25 %,[2]; [11],10%
same,pest or weed control at 0.25 %,[3]; [12],19.6%
same,"pest or weed control at 50 µg/cm2, 50 µg/cm2",[1]; [4],56.4 ± 13.8%
"CC(C)CCOc1ccccc1OCCC(C)C [3a{5,5}, 1,2-Di-(3-methyl-butyloxy)benzene]",mortality at 0.25 %,[2]; [11],40%
same,pest or weed control at 0.25 %,[3]; [12],11.5%
same,"pest or weed control at 50 µg/cm2, 50 µg/cm2",[1]; [4],69.9 ± 11.5%
"C=CCOc1ccccc1OCC=C [3a{6,6}, 1,2-Diallyloxy benzene]",mortality at 0.25 %,[2]; [11],20%
same,pest or weed control at 0.25 %,[3]; [12],15%
same,"pest or weed control at 50 µg/cm2, 50 µg/cm2",[1]; [4],70.4 ± 13.2%
"COc1cccc(OC)c1 [3b{1,1}, 1,3-Dimethoxy benzene]","pest or weed control at 50 µg/cm2, 50 µg/cm2",[1]; [5],20.4 ± 19.1%
"CCOc1cccc(OCC)c1 [3b{2,2}, 1,3-Diethoxy benzene]",mortality at 0.25 %,[2]; [13],36.7%
same,% mortality,[2]; [9],37%
same,pest or weed control at 0.25 %,[3]; [14],3.4%
same,"pest or weed control at 50 µg/cm2, 50 µg/cm2",[1]; [5],89.4 ± 8.3%
same,pest or weed control at 50 µg/cm2,[1],89%
same,DC50,[1],29 μg/cm^2
"CCCOc1cccc(OCCC)c1 [3b{3,3}, 1,3-Dipropoxy benzene]",LC50,"[2]; Table 4, concentration causing 50% mortality",0.16%
same,mortality at 0.25 %,[2]; [13],76.7%
same,% mortality,[2]; [9],77%
same,pest or weed control at 0.25 %,[3]; [14],33%
same,"pest or weed control at 50 µg/cm2, 50 µg/cm2",[1]; [5],96.9 ± 3.1%
same,pest or weed control at 50 µg/cm2,[1],97%
same,DC50,[1],27 μg/cm^2
"CC(C)CCOc1cccc(OCCC(C)C)c1 [3b{5,5}, 1,3-Di-(3-methyl-butyloxy)benzene]","pest or weed control at 50 µg/cm2, 50 µg/cm2",[1]; [5],-12.2 ± 18.8%
"COc1ccc(OC)cc1 [3c{1,1}, 1,4-Dimethoxy benzene]","pest or weed control at 50 µg/cm2, 50 µg/cm2",[1]; [7],9.9 ± 18%
"C=CCOc1ccc(OC)cc1 [3c{1, 6}, 1-allyloxy-4-methoxybenzene]",mortality at 0.25 %,[2]; [8],6%
same,"pest or weed control at 50 µg/cm2, 50 µg/cm2",[1]; [10],62 ± 15%
"CCOc1ccc(OCC)cc1 [3c{2, 2}, 1,4-Diethoxy benzene]",LC50,"[2]; Table 3, concentration causing 50% mortality compared with the control",0.03%
same,% mortality,"[2]; Table 11, at 0.25%",100%
same,mortality at 0.25 %,[2]; [15],100%
same,% mortality,[2]; [9],100%
same,"OD (%), mean ± SE (n = 25-33)","[3]; Table 3, oviposition deterrence at 0.25%, 48 h",74.7 ± 13.3a %
same,% deterrence,[3]; [16],75%
same,Index = deterrence/mortality,[3],0.75
same,pest or weed control at 0.25 %,[3]; [17],74.7%
same,"pest or weed control at 50 µg/cm2, 50 µg/cm2",[1]; [7],80.8 ± 11.3%
same,pest or weed control at 50 µg/cm2,[1],81%
same,DC50,[1],26 μg/cm^2
"CCCOc1ccc(OCCC)cc1 [3c{3,3}, 1,4-Dipropoxy benzene]",mortality at 0.25 %,[2]; [15],22.6%
same,% mortality,[2]; [9],23%
same,pest or weed control at 0.25 %,[3]; [17],11.8 ± 13.1%
same,"pest or weed control at 50 µg/cm2, 50 µg/cm2",[1]; [7],96 ± 2.8%
same,pest or weed control at 50 µg/cm2,[1],96%
same,DC50,[1],20 μg/cm^2
"CC(C)CCOc1ccc(OCCC(C)C)cc1 [3c{5,5}, 1,4-Di-(3-methyl-butyloxy)benzene]","pest or weed control at 50 µg/cm2, 50 µg/cm2",[1]; [7],44 ± 18.3%
"C=CCOc1ccc(OCCCC)cc1 [3c{6,4}, 1-allyloxy-4-butoxy benzene]",mortality at 0.25 %,[2]; [15],10%
same,pest or weed control at 0.25 %,[3]; [17],16.8 ± 13.8%
same,"pest or weed control at 50 µg/cm2, 50 µg/cm2",[1]; [7],84 ± 10.7%
"C=CCOc1ccc(OCC=C)cc1 [3c{6,6}, 1,4-Diallyloxy benzene]",mortality at 0.25 %,[2]; [15],16%
same,% mortality,[2]; [9],16%
same,pest or weed control at 0.25 %,[3]; [17],14.1 ± 13.1%
same,"pest or weed control at 50 µg/cm2, 50 µg/cm2",[1]; [7],96.9 ± 3.6%
same,pest or weed control at 50 µg/cm2,[1],97%
same,DC50,[1],24 μg/cm^2
CCOc1ccc(OCC)cc1 [drawing 17],Oviposition deterrency,[3],"strong (Strong oviposition deterrency, >50%)"
same,Feeding deterrency,[1]; 50 μg/cm^2,"strong (Strong feeding deterrency, >80%)"
CCCOc1cccc(OCCC)c1 [drawing 18],Oviposition deterrency,[3],"moderate (moderate, >25%)"
same,Feeding deterrency,[1]; 50 μg/cm^2,"strong (Strong feeding deterrency, >80%)"
CCCOc1ccc(OCCC)cc1 [drawing 22],Oviposition deterrency,[3],"weak (weak, >10%)"
same,Feeding deterrency,[1]; 50 μg/cm^2,"strong (Strong feeding deterrency, >80%)"
C=CCOc1ccc(OCC=C)cc1 [drawing 23],Oviposition deterrency,[3],"weak (weak, >10%)"
same,Feeding deterrency,[1]; 50 μg/cm^2,"strong (Strong feeding deterrency, >80%)"
C=CCOc1ccc(OCCCC)cc1 [drawing 24],Oviposition deterrency,[3],"weak (weak, >10%)"
same,Feeding deterrency,[1]; 50 μg/cm^2,"strong (Strong feeding deterrency, >80%)"
butyl eugenol,% mortality,[2]; in vivo,15%
same,% deterrence,[3]; [16],34 BL %
same,Index = deterrence/mortality,[3],2.2
